Measurements: patent publication US9504669B2, “Spliceostatin analogs and methods for their preparation” (PFIZER INC., priority 2012, dated 2016)
Where two headings read alike, the source gives them in different places.

Assays:
[1] = system: BT474 (breast cancer) cells; assay: In vitro cell assay (MTS cell viability), BT474; type: cell-based; conditions: Homo sapiens, BT-474; free compounds (natural products and synthetic analogs); cell viability 96 hours after treatment
How it was run: (§1)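 Cells seeded 24 h, then treated with antibody-drug conjugates or free drug, 3-fold serial dilutions at 10 concentrations in duplicate. Viability by MTS at 96 h as percent of untreated control; IC50 from four-parameter logistic fit.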

[2] = system: N87 (gastric cancer) cells; assay: In vitro cell assay (MTS cell viability), N87; type: cell-based; conditions: free compounds (natural products and synthetic analogs), cell viability 96 hours after treatment
How it was run: as §1

[3] = system: MDA-MB-468 cells (target non-expressing); assay: In vitro cell assay (MTS cell viability), MDA-MB-468; type: cell-based; conditions: Homo sapiens
Description: Target expressing (BT474 (breast cancer), N87 (gastric cancer), HCC1954 (breast cancer), MDA-MB-361-DYT2 (breast cancer)) or non-expressing (MDA-MB-468) cells were seeded in 96-well cell culture plates for 24 hours before treatment. Cells were treated with 3-fold serially diluted antibody-drug conjugates or free compounds (i.e., no antibody conjugated to the drug) in duplicate at 10 concentrations. Cell viability was determined by CellTiter 96® AQueous One Solution Cell Proliferation MTS Assay (Promega, Madison Wis.) 96 hours after treatment. Relative cell viability was determined as percentage of untreated control. IC50 values were calculated using a four parameter logistic model #203 with XLfit v4.2 (IDBS, Guildford, Surry, UK). The potency ranged upward from 0.0002 nm. Similar procedures and techniques were employed.

[4] = system: MDA-MB-361-DYT2 (breast cancer) cells; assay: In vitro cell assay (MTS cell viability), MDA-MB-361-DYT2; type: cell-based; conditions: free compounds (natural products and synthetic analogs), cell viability 96 hours after treatment
How it was run: as §1

human cancer cell lines = conditions: Journal of Antibiotics (1996), 49(12), 1204-1211; cited from earlier work
xenograft tumor models = conditions: Journal of Antibiotics (1996), 49(12), 1204-1211; cited from earlier work
[5] = system: spliceosome (SF3b, component of the subcomplex U2 snRNA); conditions: Nature Chemical Biology (2007), 3(9), 576-583; Nature (2010), 468(7324), 664-668; cited from earlier work
[6] = MDA-MB-468, 96 h, read-out: MDA-MB-468 IC50 (nM)

| Compound | IC50 [1] [nM] | IC50 ([2]; 96 h) [nM] | IC50 [3, 6] [nM] | IC50 ([4]; 96 h) [nM] | inhibitory activities against human cancer cell lines (human cancer cell lines) | efficacies in xenograft tumor models (xenograft tumor models) | also measured |
| --- | --- | --- | --- | --- | --- | --- | --- |
| CCCC(=O)NC[C@@H]1C[C@@]2(CO2)C[C@@H](/C=C/C(C)=C/C[C@@H]2O[C@H](C)[C@H](NC(=O)/C=C\[C@H](C)OC(C)=O)C[C@@H]2C)O1 [#B173, (2S,3Z)-5-({(2R,3R,5S,6S)-6-[(2E,4E)-5-{(3R,5S,7S)-7-[(butanoylamino)methyl]-1,6-dioxaspiro[2.5]oct-5-yl}-3-methylpenta-2,4-dien-1-yl]-2,5-dimethyltetrahydro-2H-pyran-3-yl}amino)-5-oxopent-3-en-2-yl acetate] | 3.64 | 6.38 | 7.85 | 29.1 | – | – | – |
| CC(=O)O[C@@H](C)/C=C\C(=O)N[C@@H]1C[C@H](C)[C@H](C/C=C(C)/C=C/[C@H]2O[C@H](CC(=O)O)C[C@@]3(CO3)[C@@H]2O)O[C@@H]1C [#NP1, [(3R,5S,7R,8R)-7-{(1E,3E)-5-[(2S,3S,5R,6R)-5-{[(2Z,4S)-4-(acetyloxy)pent-2-enoyl]amino}-3,6-dimethyltetrahydro-2H-pyran-2-yl]-3-methylpenta-1,3-dien-1-yl}-8-hydroxy-1,6-dioxaspiro[2.5]oct-5-yl]acetic Acid] | 145 | 61.6 | 142 | 160 | – | – | – |
| CC(=O)O[C@@H](C)/C=C\C(=O)N[C@@H]1C[C@H](C)[C@H](C/C=C(C)/C=C/[C@@H]2C[C@]3(CO3)C[C@@H](CC(=O)O)O2)O[C@@H]1C [#NP2, [(3S,5S,7S)-7-{(1E,3E)-5-[(2S,3S,5R,6R)-5-{[(2Z,4S)-4-(acetyloxy)pent-2-enoyl]amino}-3,6-dimethyltetrahydro-2H-pyran-2-yl]-3-methylpenta-1,3-dien-1-yl}-1,6-dioxaspiro[2.5]oct-5-yl]acetic acid] | 5.12 | – | – | – | – | – | IC50 [2]: 2.51 nM; IC50 ([3]; MDA-MB-468, free compounds (natural products and synthetic analogs), cell viability 96 hours after treatment, read-out: MDA-MB-468 IC50): 3.39 nM; IC50 [4]: 8.5 nM |
| CC(=O)O[C@@H](C)/C=C\C(=O)N[C@@H]1C[C@H](C)[C@H](C/C=C(C)/C=C/[C@@H]2CC(C)=CC(=O)O2)O[C@@H]1C [#NP11, (2S,3Z)-5-{[(2R,3R,5S,6S)-2,5-dimethyl-6-{(2E,4E)-3-methyl-5-[(2S)-4-methyl-6-oxo-3,6-dihydro-2H-pyran-2-yl]penta-2,4-dien-1-yl}tetrahydro-2H-pyran-3-yl]amino}-5-oxopent-3-en-2-yl acetate] | 3.72 | 3.67 | 1.55 | 4.16 | – | – | – |
| CC(=O)O[C@@H](C)/C=C\C(=O)N[C@@H]1C[C@H](C)[C@H](C/C=C(C)/C=C/[C@H]2O[C@](C)(O)C[C@@](O)(CCl)[C@@H]2O)O[C@@H]1C [FR901463] | – | – | – | – | potent inhibitory activities | efficacies in several xenograft tumor models | – |
| CC(=O)O[C@@H](C)/C=C\C(=O)N[C@@H]1C[C@H](C)[C@H](C/C=C(C)/C=C/[C@H]2O[C@](C)(O)C[C@@]3(CO3)[C@@H]2O)O[C@@H]1C [FR901464] | – | – | – | – | potent inhibitory activities | efficacies in several xenograft tumor models | inhibition of the spliceosome [5]: inhibit the spliceosome by interaction with SF3b |
| CO[C@]1(C)C[C@@]2(CO2)[C@H](O)[C@@H](/C=C/C(C)=C/C[C@@H]2O[C@H](C)[C@H](NC(=O)/C=C\[C@H](C)OC(C)=O)C[C@@H]2C)O1 [spliceostatin A] | – | – | – | – | – | – | inhibition of the spliceosome [5]: inhibit the spliceosome by interaction with SF3b |
| FR901465 | – | – | – | – | potent inhibitory activities | efficacies in several xenograft tumor models | – |
